Here are results for 24 molecules from patent publication EP4806900A2, “RAS INHIBITORS” (Revolution Medicines, Inc., priority 2019, dated 2021).

Values joined by “and” are separate entries in the source; they are usually repeats but may differ in a detail not shown here. Identical values can stand only once.

The test system of the first assay is NCI-H358 (K-Ras G12C). The experiment in a line: CellTiter-Glo cell viability assay, NCI-H358. It counts as cell-based, human. The note with it: Homo sapiens, NCI-H358, Table 5; read-out: H358 Cell Viability assay data (K-Ras G12C, IC50). Put shortly:
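Compounds dispensed directly onto plated NCI-H358 cells; plates equilibrated to room temperature on day 5 before luminescence read-out. Signal normalized to mean DMSO control (%) and fitted by four-parameter logistic.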
For orientation: ATP-based viability assays read luminescence as a measure of living cells.
Regarding `C=CC(=O)N1CC[C@H](C(=O)N(C)[C@H](C(=O)N[C@H]2Cc3cc(O)cc(c3)-c3ccc4c(c3)c(c(-c3cnn(C)c3[C@H](C)OC)n4CC)CC(C)(C)COC(=O)[C@@H]3CCCN(N3)C2=O)C(C)C)C1` [Compound A166], the IC50 (commonly the concentration at which inhibition is half-maximal) is < 0.01 µM.
On the same count and under the same terms, in the case of `CCn1c(-c2cccnc2[C@H](C)OC)c2c3cc(ccc31)-c1cccc(c1)C[C@H](NC(=O)[C@H](C(C)C)N(C)C(=O)C1(F)CCN(C(=O)C#CC(C)(C)N(C)C)CC1)C(=O)N1CCC[C@H](N1)C(=O)OCC(C)(C)C2` (atropisomer, axis not shown) [Compound A699] it was < 0.01 µM.

Staying with this assay, now noted: Homo sapiens, NCI-H358, read-out: H358 Cell Viability assay data (K-Ras G12C, IC50, uM), Table 5.
As for `CCn1c(-c2cccnc2COC)c2c3cc(ccc31)-c1cc(O)cc(c1)C[C@H](NC(=O)[C@H](C(C)C)N(C)C(=O)[C@H]1CCN(C(=O)/C=C\CN(C)C)C1)C(=O)N1CCC[C@H](N1)C(=O)OCC(C)(C)C2` [Compound A161], the IC50 is > 1 µM.
Regarding `CCn1c(-c2cccnc2C(C)OC)c2c3cc(ccc31)-c1cccc(c1)CC(NC(=O)C(C(C)C)N1CCC3(CCN(C(=O)C#CC(C)(C)N4CCC4)C3)C1=O)C(=O)N1CCCC(N1)C(=O)OCC(C)(C)C2` (stereo not drawn) [Compound A365], the IC50 is < 0.01 µM.
As for `CCn1c(-c2cnccc2COC)c2c3cc(ccc31)-c1ccnc(c1)C[C@H](NC(=O)[C@H](C(C)C)N(C)C(=O)[C@H]1CCN(C(=O)C#CCN(C)C)C1)C(=O)N1CCC[C@H](N1)C(=O)OCC(C)(C)C2` [Compound A130], the IC50 lay in the range of 0.01 to 0.1 µM.

The same assay, now with this note: Table 5; read-out: H358 Cell Viability assay data (K-Ras G12C, IC50).
Turning to `C=CC(=O)N1CC[C@H](C(=O)N(C)[C@H](C(=O)N[C@H]2Cc3cc(O)cc(c3)-c3ccc4c(c3)c(c(-c3ccc(CN5CC[C@@H](O)C5)cc3)n4CC)CC(C)(C)COC(=O)[C@@H]3CCCN(N3)C2=O)C(C)C)C1` [Examples A1], the IC50 fell in the range of 0.1 to 1 µM.
The same measure, in the same setting: in the case of `C=CC(=O)N1CC[C@@]2(CCN([C@H](C(=O)N[C@H]3Cc4cc(O)cc(c4)-c4ccc5c(c4)c(c(-c4ccccc4CCOC)n5CC)CC(C)(C)COC(=O)[C@@H]4CCCN(N4)C3=O)C(C)C)C2=O)C1` [Compound A68] it was 0.1 to 1 µM; in that of `C=CC(=O)N1CC[C@H](C(=O)N(C)[C@H](C(=O)N[C@H]2Cc3cc(O)cc(c3)-c3ccc4c(c3)c(c(-c3ccc(C5CCN(C)CC5)nc3)n4CC)CC(C)(C)COC(=O)[C@@H]3CCCN(N3)C2=O)C(C)C)C1` [Compound A98], 0.01 to 0.1 µM; in that of `C=CC(=O)N1CC[C@H](C(=O)N(C)[C@H](C(=O)N[C@H]2Cc3cc(O)cc(c3)-c3ccc4c(c3)c(c(-c3cc(F)cnc3COC)n4CC)CC(C)(C)COC(=O)[C@@H]3CCCN(N3)C2=O)C(C)C)C1` [Compound A82], 0.01 to 0.1 µM.
On to `CCn1c(-c2ccccc2CN(C)C)c2c3cc(ccc31)-c1cc(O)cc(c1)C[C@H](NC(=O)[C@H](C(C)C)N(C)C(=O)c1ccc(NC(=O)/C=C/CN(C)C)cc1)C(=O)N1CCC[C@H](N1)C(=O)OCC(C)(C)C2` [Compound A49], for which the IC50 was > 1 µM.
For `C=CC(=O)N1CC[C@H](C(=O)N(C)[C@H](C(=O)N[C@H]2Cc3cc(O)cc(c3)-c3ccc4c(c3)c(c(-c3ccccc3[C@H](C)OC)n4CC)CC(C)(C)COC(=O)[C@@H]3CCCN(N3)C2=O)C(C)C)C1` [Compound A22], the IC50 fell in the range of 0.01 to 0.1 µM.
In the case of “(2S)-N-[(7S,13S)-21-ethyl-20-[2-(methoxymethyl)pyridin-3-yl]-17,17-dimethyl-8,14-dioxo-15-oxa-4-thia-9,21,27,28-tetraazapentacyclo[17.5.2.1^2,^5.1^9,^13.0^22,^26]octacosa-1(25),2,5(28),19,22(26),23-hexaen-7-yl]-3-methyl-2-{N-methyl-1-[(3S)-1-(prop-2-enoyl)pyrrolidin-3-yl]formamido}butanamide [Compound A194]”, the IC50 was < 0.01 µM and 0.01 to 0.1 µM.
Regarding `C=CC(=O)N1CC[C@H](C(=O)N(C)[C@H](C(=O)N[C@H]2Cc3cc(O)cc(c3)-c3ccc4c(c3)c(c(-c3cccnc3N3CC(OC)C3)n4CC)CC(C)(C)COC(=O)[C@@H]3CCCN(N3)C2=O)C(C)C)C1` [Compound A60], the IC50 lay in the range of 0.01 to 0.1 µM.
In the case of `CCn1c(-c2cccnc2C(C)OC)c2c3cc(ccc31)-c1cccc(c1)C[C@H](NC(=O)[C@H](C(C)C)N(C)C(=O)N1CCC13CN(C(=O)C#CC(C)(C)N(C)C)C3)C(=O)N1CCC[C@H](N1)C(=O)OCC(C)(C)C2` (stereo partly drawn) [Compound A717], the IC50 lay within 0.01 to 0.1 µM.
For `C=CC(=O)N1CC[C@H](C(=O)N(C)[C@H](C(=O)N[C@H]2Cc3cc(OC(C)=O)cc(c3)-c3ccc4c(c3)c(c(-c3ccccc3CN(C)C)n4CC)CC(C)(C)COC(=O)[C@@H]3CCCN(N3)C2=O)C(C)C)C1` [Compound A59], the IC50 was in the range of 0.1 to 1 µM.
Consider `C=CC(=O)N1CC[C@H](C(=O)N(C)[C@H](C(=O)N[C@H]2Cc3cc(O)cc(c3)-c3ccc4c(c3)c(c(-c3ccccc3N3CCOCC3)n4CC)CC(C)(C)COC(=O)[C@@H]3CCCN(N3)C2=O)C(C)C)C1` [Compound A26], for which the IC50 lay in the range of 0.1 to 1 µM.
As for `C=CC(=O)N1CC[C@H](C(=O)N(C)[C@H](C(=O)N[C@H]2Cc3cc(N)cc(c3)-c3ccc4c(c3)c(c(-c3ccccc3COC)n4CC)CC(C)(C)COC(=O)[C@@H]3CCCN(N3)C2=O)C(C)C)C1` [Compound A42], the IC50 was 0.1 to 1 µM.
Still for that read-out and setting: to `CCn1c(-c2cccnc2[C@H](C)OC)c2c3cc(ccc31)-c1csc(n1)C[C@H](NC(=O)[C@H](C(C)C)N(C)C(=O)N1C[C@H]3CN(C(=O)C#CC(C)(C)N(C)C)CC[C@H]31)C(=O)N1CCC[C@H](N1)C(=O)OCC(C)(C)C2` (atropisomer, axis not shown) [Compound A624] belongs < 0.01 µM; to `C=CC(=O)N1CC[C@H](C(=O)N(C)[C@H](C(=O)N[C@H]2Cc3cc(O)cc(c3)-c3ccc4c(c3)c(c(-c3cccnc3CN(C)C)n4CC)CC(C)(C)COC(=O)[C@@H]3CCCN(N3)C2=O)C(C)C)C1` [Compound A92], 0.1 to 1 µM; to `C=CC(=O)N1CC[C@H](C(=O)N(C)[C@H](C(=O)N[C@H]2Cc3cc(O)cc(c3)-c3ccc4c(c3)c(c(-c3ccc(CC(=O)O)cc3)n4CC)CC(C)(C)COC(=O)[C@@H]3CCCN(N3)C2=O)C(C)C)C1` [Compound A21], > 1 µM.
On to `C=CC(=O)N1CCN(C(=O)N(C)[C@H](C(=O)N[C@H]2Cc3cc(O)cc(c3)-c3ccc4c(c3)c(c(-c3ccccc3CCOC)n4CC)CC(C)(C)COC(=O)[C@@H]3CCCN(N3)C2=O)C(C)C)CC1` [Compound A18], for which the IC50 was 0.1 to 1 µM.
As for `CCn1c(-c2ccccc2CCOC)c2c3cc(ccc31)-c1cc(O)cc(c1)C[C@H](NC(=O)[C@H](C(C)C)N(C)C(=O)C1CCN(C(=O)/C=C/CN(C)C)CC1)C(=O)N1CCC[C@H](N1)C(=O)OCC(C)(C)C2` [Compound A19], the IC50 was in the range of 0.1 to 1 µM.
On the same count and under the same terms, in the case of `C=CC(=O)N1CC[C@H](C(=O)N(C)[C@H](C(=O)N[C@H]2Cc3cccc(c3)-c3ccc4c(c3)c(c(-c3ccccc3CCOC)n4CC)CC(C)(C)COC(=O)[C@@H]3CCCN(N3)C2=O)C(C)C)C1` [Compound A24] it was > 1 µM.

Staying with this assay, now noted: read-out: H358 Cell Viability assay data (K-Ras G12C, IC50); Table 5.
As for `C=CC(=O)Nc1ccc(C(=O)N(C)[C@H](C(=O)N[C@H]2Cc3cc(O)cc(c3)-c3ccc4c(c3)c(c(-c3cccnc3[C@H](C)OC)n4CC)CC(C)(C)COC(=O)[C@@H]3CCCN(N3)C2=O)C(C)C)cn1` [Compound A336], the IC50 was < 0.01 µM.
